Experiments:
Experiment in all cases: relative viability (nuclei count vs DMSO), 5 days (fraction); higher = more cells survive
BAM7 + Phenformin = compound: CCOC1=CC=CC=C1N=NC2=C(NN(C2=O)C3=NC(=CS3)C4=CC=CC=C4)C [BAM7] + N=C(N)NC(=N)NCCc1ccccc1 [Phenformin] (partner 250 µM)
Summary of the method: (§1)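 A single step with final 0.05% Triton X-100, 1% formaldehyde and 1 ug/ml Hoechst fixed the cells and stained nuclei 5 days after treatment. Lung cancer cell lines in 1536-well plates had been treated by pin tool the day after seeding with one drug alone or a fixed anchor-drug dose plus five library-drug doses (not always all listed) in √10 steps, and nuclei were counted on 4× images. Relative viability is the ratio of nuclei in treated wells to nuclei in vehicle wells, taken as the median of duplicate plates.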

[1] = compound: CCn1c(-c2nonc2N)nc2c(C#CC(C)(C)O)ncc(OC[C@H]3CCCNC3)c21 + O=C(CCCCCCC(=O)Nc1ccccc1)NO [Vorinostat] (partner 1 µM)
Summary of the method: as §1

BAM7 + Vorinostat = compound: CCOC1=CC=CC=C1N=NC2=C(NN(C2=O)C3=NC(=CS3)C4=CC=CC=C4)C [BAM7] + O=C(CCCCCCC(=O)Nc1ccccc1)NO [Vorinostat] (partner 1 µM)
Summary of the method: as §1

[2] = compound: CCn1c(-c2nonc2N)nc2c(C#CC(C)(C)O)ncc(OC[C@H]3CCCNC3)c21 + CS(=O)(=O)CCNCc1ccc(-c2ccc3ncnc(Nc4ccc(OCc5cccc(F)c5)c(Cl)c4)c3c2)o1 [Lapatinib] (partner 2 µM)
Summary of the method: as §1

Cell Line: EPLC-272H
- relative viability (BAM7 + Phenformin; first compound 0.5 µM): 0.291
- relative viability (BAM7 + Phenformin; first compound 15.81 µM): 0.322
- relative viability (BAM7 + Phenformin; first compound 50 µM): 0.281
- relative viability ([1]; first compound 0.01 µM): 0.507
- relative viability ([1]; first compound 0.03162 µM): 0.426
- relative viability ([1]; first compound 0.1 µM): 0.573
- relative viability ([1]; first compound 0.3162 µM): 0.393
- relative viability ([1]; first compound 1 µM): 0.571
- relative viability (BAM7 + Vorinostat; first compound 0.5 µM): 0.623
- relative viability (BAM7 + Vorinostat; first compound 5 µM): 0.427
- relative viability (BAM7 + Vorinostat; first compound 15.81 µM): 0.477
- relative viability (BAM7 + Vorinostat; first compound 50 µM): 0.358
- relative viability ([2]; first compound 0.01 µM): 0.905
- relative viability ([2]; first compound 0.03162 µM): 0.998
- relative viability ([2]; first compound 0.1 µM): 0.907
- relative viability ([2]; first compound 0.3162 µM): 0.788
- relative viability ([2]; first compound 1 µM): 0.909

From the supplement of paper PMC10307832
